Measured values taken from patent publication US9796711B2, “Substituted pyrazolo[3,4-b]pyridin-6-carboxylic acids and method of use” (AbbVie S.àr.l., priority 2015, dated 2017).

What was measured:
ΔF508-CFTR [1] = target: T1, ΔF508-CFTR (Homo sapiens, UniProt P13569, DEL508-508); assay: CFTR cell surface levels using HRP-tagged ΔF508-CFTR expressing CFBE cells, in the presence of a co-corrector; format: cell-based
T1 construct: host or cells: CFBE41o-, doxycycline-inducible
In short: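 Cells were seeded with 0.5 μg/mL doxycycline and held 68 h at 37 °C. Test compounds plus 3 μM co-corrector (final 0.1% DMSO) were then added for 20 h at 33 °C. Washed cells received HRP substrate, and luminescence was normalized between DMSO and 3 μM co-corrector controls.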

ΔF508-CFTR [2] = target: T1, ΔF508-CFTR; assay: CFTR cell surface levels using HRP-tagged ΔF508-CFTR expressing CFBE cells, intrinsic corrector capacity; format: cell-based
In short: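 Here the cells express ΔF508-CFTR with horseradish peroxidase inserted in extracellular loop 4, so only rescued channel at the surface gives luminescent signal. Compounds act on their own, 20 h at the reduced temperature of 33 °C; values are percent activity relative to DMSO and a 3 μM corrector.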

[3] = HRP-tagged ΔF508-CFTR expressing CFBE cells, in the presence of 3 μM co-corrector
[4] = HRP-tagged ΔF508-CFTR expressing CFBE cells, in the presence of 3 μM co-corrector, read-out: EC50
[5] = HRP-tagged ΔF508-CFTR expressing CFBE cells, intrinsic corrector capacity (no co-corrector), 33° C., 20 hours
[6] = HRP-tagged ΔF508-CFTR expressing CFBE cells, intrinsic corrector capacity (no co-corrector), 33° C., 20 hours, read-out: EC50
[7] = HRP-tagged ΔF508-CFTR CFBE41o- cells, compounds alone (intrinsic corrector capacity), 20 hours at 33° C., positive control 3 μM corrector
[8] = HRP-tagged ΔF508-CFTR CFBE41o- cells, compounds alone (intrinsic corrector capacity), 20 hours at 33° C., read-out: EC50

T1 sequence (P13569 with tags, fused parts or gaps DEL508-508): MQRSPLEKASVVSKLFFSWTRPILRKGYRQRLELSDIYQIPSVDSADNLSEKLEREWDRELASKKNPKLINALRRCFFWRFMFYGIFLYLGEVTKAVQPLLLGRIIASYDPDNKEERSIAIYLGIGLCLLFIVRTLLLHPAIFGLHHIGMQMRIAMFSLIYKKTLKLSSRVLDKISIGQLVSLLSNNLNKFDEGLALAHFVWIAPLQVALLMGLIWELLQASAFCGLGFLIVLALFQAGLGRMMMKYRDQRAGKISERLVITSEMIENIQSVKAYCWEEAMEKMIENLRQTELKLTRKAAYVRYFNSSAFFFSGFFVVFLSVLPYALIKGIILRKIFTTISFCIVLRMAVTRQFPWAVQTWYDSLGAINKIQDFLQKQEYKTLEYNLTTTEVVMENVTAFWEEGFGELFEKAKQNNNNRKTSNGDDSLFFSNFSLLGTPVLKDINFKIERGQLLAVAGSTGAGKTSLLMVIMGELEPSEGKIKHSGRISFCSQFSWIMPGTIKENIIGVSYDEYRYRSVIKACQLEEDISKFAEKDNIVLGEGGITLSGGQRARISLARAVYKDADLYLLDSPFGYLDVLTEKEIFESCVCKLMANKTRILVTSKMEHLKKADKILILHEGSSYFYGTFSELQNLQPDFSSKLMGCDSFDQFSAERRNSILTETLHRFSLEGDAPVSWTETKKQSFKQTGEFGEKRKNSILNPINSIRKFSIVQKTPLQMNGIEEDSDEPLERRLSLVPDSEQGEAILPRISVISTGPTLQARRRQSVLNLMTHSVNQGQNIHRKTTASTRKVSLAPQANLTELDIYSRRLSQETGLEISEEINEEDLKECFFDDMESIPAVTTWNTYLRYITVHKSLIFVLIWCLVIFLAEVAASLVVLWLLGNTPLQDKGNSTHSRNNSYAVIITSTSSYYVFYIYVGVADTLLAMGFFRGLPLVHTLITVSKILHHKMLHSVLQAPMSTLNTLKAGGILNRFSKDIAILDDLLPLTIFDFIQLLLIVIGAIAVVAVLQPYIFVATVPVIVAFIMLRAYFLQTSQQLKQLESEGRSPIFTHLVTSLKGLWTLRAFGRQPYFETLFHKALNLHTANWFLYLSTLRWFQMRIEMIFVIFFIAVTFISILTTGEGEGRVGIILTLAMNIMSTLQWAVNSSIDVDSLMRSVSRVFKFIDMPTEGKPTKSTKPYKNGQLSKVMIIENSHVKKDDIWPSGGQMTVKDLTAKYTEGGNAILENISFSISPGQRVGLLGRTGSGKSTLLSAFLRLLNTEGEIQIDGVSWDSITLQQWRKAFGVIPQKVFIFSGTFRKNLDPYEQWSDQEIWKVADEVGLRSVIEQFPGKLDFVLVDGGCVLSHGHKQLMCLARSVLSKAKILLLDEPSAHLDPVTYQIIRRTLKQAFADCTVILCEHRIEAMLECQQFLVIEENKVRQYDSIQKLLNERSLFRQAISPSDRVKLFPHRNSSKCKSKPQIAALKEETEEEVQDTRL

SMILES | % Activation (ΔF508-CFTR [1]; [3]) | EC50 (ΔF508-CFTR [1]; [4]) | % Activation (ΔF508-CFTR [2]; [5]) | EC50 (ΔF508-CFTR [2]; [6]) | % Activation (ΔF508-CFTR [2]; [7]) | EC50 (ΔF508-CFTR [2]; [8]) | EC50 (ΔF508-CFTR [1]) | EC50 (ΔF508-CFTR [2])
CC(C)OC(=O)N1CC[C@@H]2CN(c3cc(C(=O)O)nc4c3c(C3CCC3)nn4-c3ccccc3)CC[C@@H]21 (racemic) [compound 610, rac-3-cyclobutyl-1-phenyl-4-[(3aR,7aS)-1-{[(propan-2-yl)oxy]carbonyl}octahydro-5H-pyrrolo[3,2-c]pyridin-5-yl]-1H-pyrazolo[3,4-b]pyridine-6-carboxylic acid] | 539.05% | 44.8 nM | 262.4% | 123 nM |  |  |  | 
CC(C)c1nn(-c2cccc(N3CCOCC3)c2)c2nc(C(=O)O)cc(-c3ccc(N(C)C)nc3)c12 [compound 89, 4-[6-(dimethylamino)pyridin-3-yl]-1-[3-(morpholin-4-yl)phenyl]-3-(propan-2-yl)-1H-pyrazolo[3,4-b]pyridine-6-carboxylic acid] | 482.05% | 1240 nM |  |  | 310.15% | 2530 nM |  | 
Cc1nn(-c2ccccc2)c2nc(C(=O)O)cc(N3CCCCC3)c12 [compound 123, 3-methyl-1-phenyl-4-(piperidin-1-yl)-1H-pyrazolo[3,4-b]pyridine-6-carboxylic acid] | 267.95% | 2690 nM |  |  | 107.95% | 3280 nM |  | 
CC(C)c1nn(-c2cccc(N3CCC3)c2)c2nc(C(=O)O)cc(-c3ccc(N4CCOCC4)cc3)c12 [compound 151, 1-[3-(azetidin-1-yl)phenyl]-4-[4-(morpholin-4-yl)phenyl]-3-(propan-2-yl)-1H-pyrazolo[3,4-b]pyridine-6-carboxylic acid] | 562.6% | 644 nM |  |  | 322.03% | 354 nM |  | 
CC(C)c1nn(C2CCCCC2)c2nc(C(=O)O)cc(-c3ccc(N(C)C4CCOCC4)nc3)c12 [compound 169, 1-cyclohexyl-4-{6-[methyl(oxan-4-yl)amino]pyridin-3-yl}-3-(propan-2-yl)-1H-pyrazolo[3,4-b]pyridine-6-carboxylic acid] | 436.5% | 302 nM |  |  | 217.88% | 448 nM |  | 
Cc1cccc(-n2nc(C(C)C)c3c(N4CCC(C#N)CC4)cc(C(=O)O)nc32)c1 [compound 191, 4-(4-cyanopiperidin-1-yl)-1-(3-methylphenyl)-3-(propan-2-yl)-1H-pyrazolo[3,4-b]pyridine-6-carboxylic acid] | 375.1% | 481 nM |  |  | 208.12% | 998 nM |  | 
COC1CCN(c2cc(C(=O)O)nc3c2c(C(C)C)nn3-c2cccc(C)c2)CC1 [compound 192, 4-(4-methoxypiperidin-1-yl)-1-(3-methylphenyl)-3-(propan-2-yl)-1H-pyrazolo[3,4-b]pyridine-6-carboxylic acid] | 439.45% | 274 nM |  |  | 276.92% | 424 nM |  | 
CC(C)c1nn(-c2ccnc(N3CCOCC3)c2)c2nc(C(=O)O)cc(-c3ccc(N4CCOCC4)cc3)c12 [compound 201, 4-[4-(morpholin-4-yl)phenyl]-1-[2-(morpholin-4-yl)pyridin-4-yl]-3-(propan-2-yl)-1H-pyrazolo[3,4-b]pyridine-6-carboxylic acid] | 439.85% | 288 nM |  |  | 251.3% | 596 nM |  | 
CC(C)c1nn(-c2cccc(N3CCOCC3)c2)c2nc(C(=O)O)cc(-c3cnc(N4CCC(C#N)CC4)nc3)c12 [compound 204, 4-[2-(4-cyanopiperidin-1-yl)pyrimidin-5-yl]-1-[3-(morpholin-4-yl)phenyl]-3-(propan-2-yl)-1H-pyrazolo[3,4-b]pyridine-6-carboxylic acid] | 589.7% | 844 nM |  |  | 402.1% | 1110 nM |  | 
CO[C@H]1CCC[C@@H](n2nc(C(C)C)c3c(-c4ccc(N5CCOCC5)cc4)cc(C(=O)O)nc32)C1 [compound 205, 1-[(1R,3S)-3-methoxycyclohexyl]-4-[4-(morpholin-4-yl)phenyl]-3-(propan-2-yl)-1H-pyrazolo[3,4-b]pyridine-6-carboxylic acid] | 261.5% | 819 nM |  |  | 109% | 1110 nM |  | 
Cc1cccc(-n2nc(C(C)C)c3c(N4CCC(CO)CC4)cc(C(=O)O)nc32)c1 [compound 213, 4-[4-(hydroxymethyl)piperidin-1-yl]-1-(3-methylphenyl)-3-(propan-2-yl)-1H-pyrazolo[3,4-b]pyridine-6-carboxylic acid] | 456.97% | 382 nM |  |  | 247.33% | 679 nM |  | 
N#CC1CCN(c2ccc(-c3cc(C(=O)O)nc4c3c(C3CCC3)nn4C3CCCCC3)cn2)CC1 [compound 220, 4-[6-(4-cyanopiperidin-1-yl)pyridin-3-yl]-3-cyclobutyl-1-cyclohexyl-1H-pyrazolo[3,4-b]pyridine-6-carboxylic acid] | 470.77% | 369 nM |  |  | 245.37% | 786 nM |  | 
CC(C)c1nn(-c2cccc(N3CCCC3)c2)c2nc(C(=O)O)cc(-c3ccc(N4CCC(C#N)CC4)nc3)c12 [compound 222, 4-[6-(4-cyanopiperidin-1-yl)pyridin-3-yl]-3-(propan-2-yl)-1-[3-(pyrrolidin-1-yl)phenyl]-1H-pyrazolo[3,4-b]pyridine-6-carboxylic acid] | 612.47% | 268 nM |  |  | 429.93% | 433 nM |  | 
COCC1CCN(c2cc(C(=O)O)nc3c2c(C(C)C)nn3-c2cccc(C)c2)CC1 [compound 227, 4-[4-(methoxymethyl)piperidin-1-yl]-1-(3-methylphenyl)-3-(propan-2-yl)-1H-pyrazolo[3,4-b]pyridine-6-carboxylic acid] | 452.6% | 340 nM |  |  | 305.45% | 666 nM |  | 
COCCC1CCN(c2cc(C(=O)O)nc3c2c(C(C)C)nn3-c2cccc(C)c2)CC1 [compound 228, 4-[4-(2-methoxyethyl)piperidin-1-yl]-1-(3-methylphenyl)-3-(propan-2-yl)-1H-pyrazolo[3,4-b]pyridine-6-carboxylic acid] | 475.1% | 397 nM |  |  | 297.15% | 680 nM |  | 
CC(C)c1nn(-c2cccc(N3CCOCC3)n2)c2nc(C(=O)O)cc(-c3ccc(N4CCOCC4)cc3)c12 [compound 244, 4-[4-(morpholin-4-yl)phenyl]-1-[6-(morpholin-4-yl)pyridin-2-yl]-3-(propan-2-yl)-1H-pyrazolo[3,4-b]pyridine-6-carboxylic acid] | 514.48% | 458 nM |  |  | 320.17% | 473 nM |  | 
CC(C)c1nn(-c2cc(F)cc(F)c2)c2nc(C(=O)O)cc(-c3ccc(N4CCOCC4)cc3)c12 [compound 268, 1-(3,5-difluorophenyl)-4-[4-(morpholin-4-yl)phenyl]-3-(propan-2-yl)-1H-pyrazolo[3,4-b]pyridine-6-carboxylic acid] | 425.68% | 394 nM |  |  | 251.82% | 616 nM |  | 
CN(C)C[C@@H](F)C1CCN(c2cc(C(=O)O)nc3c2c(C2CCC2)nn3-c2ccccc2)CC1 [compound 456, 3-cyclobutyl-4-{4-[(1S)-2-(dimethylamino)-1-fluoroethyl]piperidin-1-yl}-1-phenyl-1H-pyrazolo[3,4-b]pyridine-6-carboxylic acid] | 414.5% | 335 nM | 253.65% | 845 nM |  |  |  | 
CCOC(=O)N1CCN(c2cc(C(=O)O)nc3c2c(C2CCC2)nn3-c2ccccc2)CC1 [compound 539, 3-cyclobutyl-4-[4-(ethoxycarbonyl)piperazin-1-yl]-1-phenyl-1H-pyrazolo[3,4-b]pyridine-6-carboxylic acid] | 564.8% | 198 nM | 366.3% | 370 nM |  |  |  | 
O=C(O)c1cc(N2CCC(CN3CCCC3)CC2)c2c(C3CCC3)nn(-c3ccccc3)c2n1 [compound 557, 3-cyclobutyl-1-phenyl-4-{4-[(pyrrolidin-1-yl)methyl]piperidin-1-yl}-1H-pyrazolo[3,4-b]pyridine-6-carboxylic acid] | 418.2% | 200 nM | 221.7% | 444 nM |  |  |  | 
O=C(O)c1cc(N2CCC(N3CCOCC3)CC2)c2c(C3CCC3)nn(-c3ccccc3)c2n1 [compound 560, 3-cyclobutyl-4-[4-(morpholin-4-yl)piperidin-1-yl]-1-phenyl-1H-pyrazolo[3,4-b]pyridine-6-carboxylic acid] | 437.33% |  | 265.05% |  |  |  | 171 nM | 393 nM
O=C(O)c1cc(N2CCC(CCN3CCCC3)CC2)c2c(C3CCC3)nn(-c3ccccc3)c2n1 [compound 574, 3-cyclobutyl-1-phenyl-4-{4-[2-(pyrrolidin-1-yl)ethyl]piperidin-1-yl}-1H-pyrazolo[3,4-b]pyridine-6-carboxylic acid] | 469.5% | 190 nM | 294% | 479 nM |  |  |  | 
